Results from US20220195384A1, “COMPOSITION FOR PROMOTING PRODUCTION OF STEM CELL-DERIVED EXOSOMES AND INCREASING STEMNESS” (BREXOGEN INC., priority 2019, published 2022).

What was measured:
Format in all cases: cell-based
[1] = system: primary umbilical cord-derived mesenchymal stem cells; test: Stem cell proliferation (CCK, absorbance 450 nm) after pretreatment; settings: 10 ng/mL interferon-γ pretreatment one week; 24 h culture, CCK 4 h
Protocol: (§1) In a culture medium [high glucose DMEM (Gibco, Cat no. 11995-065); 10% fetal bovine serum (HyClone), 1% MEM non-essential amino acids solution (100×) (Gibco, Cat no. 11140-050)] containing 20 nM of exendin-4, primary umbilical cord-derived mesenchymal stem cells (ATCC No. PCS-500-010; Lot No. 63822428) were cultured for one week.
as §1, with “10” for “20”, “PMA,” for “exendin-4,”
as §1, with “10 ng/mL interferon-γ,” for “20 nM of exendin-4,”
as §1, with “10 μM” for “20 nM”, “tetrandrine,” for “exendin-4,”
as §1, with “10 μg/mL hyaluronic acid,” for “20 nM of exendin-4,”
as §1, with “30” for “20”, “substance P,” for “exendin-4,”
as §1, with “10” for “20”, “resveratrol,” for “exendin-4,”
as §1, with “10 μM” for “20 nM”, “lanifibranor,” for “exendin-4,”
(§2) Mesenchymal stem cells and the exendin-4-pretreated mesenchymal stem cells of the Example were each seeded at a density of 3,000 cells/well into 96-well plates containing 100 μL of a culture medium [high glucose DMEM (Gibco, Cat no. 11995-065), 10% fetal bovine serum (HyClone), 1% MEM non-essential amino acids solution (100×) (Gibco, Cat no. 11140-050)] per well and cultured for 24 hours in a CO2 incubator. Then, CCK solution (10 μL/well) was added, and incubation was continued for 4 hours in the CO2 incubator, followed by reading absorbance at a wavelength of 450 nm (420-480 nm) to determine proliferation.
as §2, with “PMA-pretreated” for “exendin-4-pretreated”, “proliferation. […]” for “proliferation.”

[2] = system: primary umbilical cord-derived mesenchymal stem cells; test: Number of exosomes by nanoparticle tracking assay (NanoSight NS300); settings: 10 ng/mL interferon-γ pretreatment one week
Protocol: as §1
(§3) After completion of culturing, the mesenchymal stem cells pretreated with exendin-4 were washed and additionally cultured for 72 hours in a culture medium supplemented with 10% fetal bovine serum (FBS) free of exosomes. The reason of employing exosome-free FBS was to prevent FBS-derived exosomes other than those secreted from the cells from being incorporated because generally used FBS contained a large amount of exosomes derived from bovine serum.
(§4) After 72 hours of culturing, the culture medium in which the pretreated mesenchymal stem cells were cultured was taken and centrifuged at 300×g for 10 min to remove residual cells and cell debris. The supernatant was filtered through a 0.22 μm filter, followed by centrifugation at 10,000×g and 4° C. for 70 min in a high-speed centrifuge. The supernatant thus obtained was subjected again to ultracentrifugation at 100,000×g and 4° C. for 90 min. The exosomes obtained as a pellet were diluted in PBS (phosphate buffered saline) before use in the following experiments.
as §1, with “10” for “20”, “PMA,” for “exendin-4,”
as §3, with “PMA” for “exendin-4”
as §1, with “10 ng/mL interferon-γ,” for “20 nM of exendin-4,”
as §3, with “interferon-γ” for “exendin-4”
as §1, with “10 μM” for “20 nM”, “tetrandrine,” for “exendin-4,”
as §3, with “tetrandrine” for “exendin-4”, “serum. […]” for “serum.”

[3] = system: primary umbilical cord-derived mesenchymal stem cells; test: Content of exosomal protein (Bradford analysis, 595 nm); settings: 10 ng/mL interferon-γ pretreatment one week
Protocol: as §1, §3, §4
as §1, with “10” for “20”, “PMA,” for “exendin-4,”
as §3, with “PMA” for “exendin-4”
as §1, with “10 ng/mL interferon-γ,” for “20 nM of exendin-4,”
as §3, with “interferon-γ” for “exendin-4”
as §1, with “10 μM” for “20 nM”, “tetrandrine,” for “exendin-4,”
as §3, with “tetrandrine” for “exendin-4”, “serum. […]” for “serum.”

[4] = system: primary umbilical cord-derived mesenchymal stem cells; test: Content of exosomal RNA (NanoDrop); settings: 10 ng/mL interferon-γ pretreatment one week
Protocol: as §1, §3, §4
as §1, with “10” for “20”, “PMA,” for “exendin-4,”
as §3, with “PMA” for “exendin-4”
as §1, with “10 ng/mL interferon-γ,” for “20 nM of exendin-4,”
as §3, with “interferon-γ” for “exendin-4”
as §1, with “10 μM” for “20 nM”, “tetrandrine,” for “exendin-4,”
as §3, with “tetrandrine” for “exendin-4”, “serum. […]” for “serum.”

## interferon-γ [IFNγ MSC-Exo = exosomes of IFNγ-treated mesenchymal stem cells]
[1]
  increase in proliferation relative to non-treated mesenchymal stem cells: about 242%
  proliferation ratio relative to non-treated mesenchymal stem cells (1): 2.42
[2]
  fold more exosomes than non-treated mesenchymal stem cells: about 6.7 fold
[2]; then 72 h exosome-free FBS medium, non-treated 2.3
  No. of exosome particles, yield per 10^6 cells: 15.4 10^9
[3]
  fold greater exosomal proteins than non-treated mesenchymal stem cells: about 6.2 fold
[3]; then 72 h exosome-free FBS medium, non-treated 2.0
  Exosomal protein, yield per 10^6 cells: 12.4 ug
[4]
  fold greater exosomal RNA than non-treated mesenchymal stem cells: about 5.0 fold
[4]; then 72 h exosome-free FBS medium, non-treated 31.0
  Exosomal RNA, yield per 10^6 cells: 155.0 ng
